We go through 11 molecules from PubChem BioAssay (NCI).

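Grown in 96-well plates, cells were treated for 48 hours with each compound at five concentrations. Insufficient inhibition: endpoint recorded as highest concentration tested. At the TGI there is no net growth.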

Experiment in all cases: NCI tumour cell line growth inhibition, 48 h
The subject of test [1] is MDA-MB-231 breast.
In test [2] the test system is A498 renal.
In test [3] the test system is HCC-2998 colon.
Test [4] concerns LOX IMVI melanoma.
The test system of test [5] is MDA-MB-435.
In test [6] the test system is K-562 leukemia.
Test [7] deals with UACC-62 melanoma.
The subject of test [8] is IGROV1 ovarian.
Test [9] deals with A549 NSCLC.
Test [10] deals with NCI-H226 lung.
In test [11] the test system is SK-OV-3 ovarian.
The test system of test [12] is SNB-19 CNS.
Test [13] has as its system OVCAR-5 ovarian.

`CCOC(=O)C1CCCC1S(=O)(=O)c1ccc(C)cc1` (stereo not drawn): the TGI in test [1], in [2], in test [3], in test [4], in test [5] and in test [6] was greater than 100 µM in each case. The TGI in test [7], in test [8], in [9], in [10], in test [11] and in [12] was greater than 100 µM throughout. For the same molecule, in test [13], the TGI was greater than 100 µM.
With `CS(=O)(=O)OC1CCN(C2(c3cccc(O)c3)CCCCC2)CC1`, the TGI in [1] was greater than 100 µM; in test [2] it was greater than 100 µM; in test [3] it was 39.7 µM; in [4], 51.8 µM; in test [5], greater than 100 µM; in [6] it was greater than 100 µM. Moreover, the TGI in [7], in test [8], in [9], in test [10], in [11] and in test [12] was greater than 100 µM throughout. Besides, the TGI in test [13] was greater than 100 µM.
As to `N#CCCCCC12C3C(=O)N(c4ccccc4)C(=O)C3ON1O[C@@H]1C(=O)N(c3ccccc3)C(=O)[C@@H]12` (stereo partly drawn), the TGI in [1], in test [2], in test [3], in [4], in test [5] and in test [6] was greater than 100 µM in each case. The TGI in test [7], in [8], in test [9], in test [10], in [11] and in test [12] was greater than 100 µM in each case. In test [13], this molecule returned a TGI greater than 100 µM.
For `CC1=NN(c2cccc(Cl)c2)C2(C1)SCC(=O)N2c1nc2ccccc2s1` (stereo not drawn), the TGI in test [1] amounted to 40.3 µM; in test [2], 89.8 µM; in test [3], 38.5 µM; in [4], 41.6 µM; in test [5], 79.7 µM; in test [6], 48.9 µM. Besides, the TGI is greater than 100 µM in [7]; greater than 100 µM in [8]; greater than 100 µM in test [9]; 37.1 µM in [10]; 85.3 µM in test [11]; greater than 100 µM in test [12]. In test [13], this molecule had a TGI greater than 100 µM.
As to `CN(C)Cc1cc(C(=O)/C=C/c2c(F)cccc2Cl)cc(CN(C)C)c1O`, the TGI in [1] stood at 27.5 µM; in [2], 21 µM; in [3] it was 27 µM; in test [4], 18.5 µM; in test [5], 38.2 µM; in test [6], 26.8 µM. The TGI in test [7] was 26.1 µM; in test [8], 19 µM; in test [9] it was 32.5 µM; in test [10], 30.8 µM; in [11], 28.3 µM; in [12], 61.5 µM. This molecule also came in with a TGI in [13] of 36.2 µM.
On to `CCCCCCCCC[C@@H]1C[C@@H]2CCC3C(C(=O)OCCCCNC(=O)OCc4ccccc4)=C(C)NC(=N1)N32` (stereo partly drawn), for which the TGI in test [1] was 6.09 µM; in test [2], 18.9 µM; in test [3], 11.1 µM; in test [4], 4.31 µM; in test [5] it was 9.82 µM; in test [6], 3.83 µM. For the same molecule, the TGI in [7] stood at 13.7 µM; in test [8], 6.11 µM; in [9], 23.3 µM; in [10] it was 11.6 µM; in test [11] it was 8.74 µM; in test [12] it was 29.4 µM. In [13], this molecule returned a TGI of 21.4 µM.
On to `S=C1NC2=C(COC/C2=C\c2ccccc2Cl)C(c2ccccc2Cl)N1` (stereo not drawn), for which the TGI is greater than 100 µM in test [1]; greater than 100 µM in [2]; 89 µM in [3]; 70.7 µM in [4]; greater than 100 µM in [5]; greater than 100 µM in test [6]. Moreover, the TGI in [7], in test [8], in test [10], in [11], in test [12] and in [13] was greater than 100 µM each time.
For `O=C(O)C1C2CCC(C2)C1c1ccccc1` (stereo not drawn), the TGI in test [1], in [2], in [3], in test [4], in test [5] and in test [6] was greater than 100 µM throughout. The TGI in test [7], in test [9], in test [10], in [11], in [12] and in test [13] was greater than 100 µM each time.
Take `O=C1O[C@H](COC(=O)c2ccccc2)[C@@H](OC(=O)c2ccccc2)C=C1OC(=O)c1ccccc1`: the TGI in [1] is 36.2 µM; in [2], greater than 100 µM; in [3] it was greater than 100 µM; in test [4], 39.3 µM; in [5], 69.9 µM; in test [6], 57.4 µM. Further, the TGI in test [7] is 49.6 µM; in test [8] it was 57.2 µM; in [10] it was 45.6 µM; in test [11], greater than 100 µM; in [12] it was 35.6 µM; in test [13], 40.9 µM.
With `CC(C(O)c1ccccc1)[N+](=O)[O-]` (stereo not drawn), the TGI in [1] came out at 59.2 µM; in test [2] it was 36.3 µM; in [3], 30.5 µM; in [4], 6.02 µM; in test [5], 38.2 µM; in test [6], 59.1 µM. Moreover, the TGI in test [7] is 37.2 µM; in test [8] it was 34.4 µM; in test [9] it was 40 µM; in test [10] it was 48.3 µM; in test [12], 66 µM; in [13], 65.6 µM.
Regarding `CCOc1ccc(-n2c(=O)n3c(Nc4ccc(Cl)cc4)nc4c(c(=O)n(C)c(=O)n4C)n3c2=O)cc1`, the TGI in [1] worked out at 35.1 µM; in [2], 39.4 µM; in [3] it was 34.4 µM; in test [4], 44.8 µM; in test [5], 39.7 µM; in test [6], 84 µM. Also, the TGI in test [7] is 46.3 µM; in test [8] it was greater than 100 µM; in [9], greater than 100 µM; in test [10], 74.5 µM; in [12], greater than 100 µM; in test [13], greater than 100 µM.
